Measured values taken from ChEMBL document CHEMBL1201862, “PubChem BioAssay data set” (2004).
Blank lines part the entries; values can stand above or below the molecule they belong to. The source made the active and inactive calls.

Legend:
[1] = Luminescence Cell-Based Dose Confirmation HTS to Identify Inhibitors of Platelet Dense Granule Release. [Related pubchem assays: 1663 (Primary HTS), 1678 (Summary of Project)]; assay type: functional
[2] = inhibitors of SFLLRN-triggered platelet P-selectin exposure, dose response, cell-based, fluorescence, flow cytometry, human platelets (AID 2511); assay type: functional
[3] = target: Luciferin 4-monooxygenase (Photinus pyralis, UniProt P08659); assay: firefly luciferase enzyme inhibitors, dose response, biochemical, luminescence (AID 1891)
Chain of Luciferin 4-monooxygenase (P08659 whole entry): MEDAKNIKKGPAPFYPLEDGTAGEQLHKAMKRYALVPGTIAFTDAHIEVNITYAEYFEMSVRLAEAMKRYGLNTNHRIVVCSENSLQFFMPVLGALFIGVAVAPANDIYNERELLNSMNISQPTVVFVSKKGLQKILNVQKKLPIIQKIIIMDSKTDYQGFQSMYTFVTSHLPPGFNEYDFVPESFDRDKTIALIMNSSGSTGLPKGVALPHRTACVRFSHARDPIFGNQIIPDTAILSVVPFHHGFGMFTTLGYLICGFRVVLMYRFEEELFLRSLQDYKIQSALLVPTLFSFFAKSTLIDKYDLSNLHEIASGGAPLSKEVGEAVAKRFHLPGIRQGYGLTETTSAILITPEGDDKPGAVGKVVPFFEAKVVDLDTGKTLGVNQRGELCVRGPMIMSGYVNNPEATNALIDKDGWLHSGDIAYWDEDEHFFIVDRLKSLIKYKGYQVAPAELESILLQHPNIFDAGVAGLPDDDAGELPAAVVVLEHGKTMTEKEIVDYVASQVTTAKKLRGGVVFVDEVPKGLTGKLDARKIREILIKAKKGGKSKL

[4] = blockers of SFLLRN-triggered platelet ATP secretion – cell-based, human platelets, luminescence, dry powder, dose response (AID 493100); assay type: functional
X-box-binding protein 1 = X-box-binding protein 1 (Homo sapiens, UniProt P17861); assay type: functional, Cricetulus griseus;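 note: confirmatory dose-response counter-screen serving a CHOP assay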
Chain of X-box-binding protein 1 (P17861 whole entry): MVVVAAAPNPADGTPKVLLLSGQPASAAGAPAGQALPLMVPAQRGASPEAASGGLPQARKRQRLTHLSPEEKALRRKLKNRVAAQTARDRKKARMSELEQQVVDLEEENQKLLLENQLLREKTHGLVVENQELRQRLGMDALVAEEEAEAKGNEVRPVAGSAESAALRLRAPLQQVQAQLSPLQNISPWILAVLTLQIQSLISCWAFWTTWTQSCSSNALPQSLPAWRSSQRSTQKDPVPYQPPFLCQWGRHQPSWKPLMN

Hexokinase = Hexokinase (Trypanosoma brucei, UniProt Q38C41); assay: Confirmation assay for inhibitors of Trypanosoma brucei hexokinase 1-Analogue-first series. [Related pubchem assays (depositor defined):AID1430, AID1632, AID2516, AID2560, AID2579, AID2600, AID449725, AID492951]; assay type: functional
Chain of Hexokinase (Q38C41 whole entry): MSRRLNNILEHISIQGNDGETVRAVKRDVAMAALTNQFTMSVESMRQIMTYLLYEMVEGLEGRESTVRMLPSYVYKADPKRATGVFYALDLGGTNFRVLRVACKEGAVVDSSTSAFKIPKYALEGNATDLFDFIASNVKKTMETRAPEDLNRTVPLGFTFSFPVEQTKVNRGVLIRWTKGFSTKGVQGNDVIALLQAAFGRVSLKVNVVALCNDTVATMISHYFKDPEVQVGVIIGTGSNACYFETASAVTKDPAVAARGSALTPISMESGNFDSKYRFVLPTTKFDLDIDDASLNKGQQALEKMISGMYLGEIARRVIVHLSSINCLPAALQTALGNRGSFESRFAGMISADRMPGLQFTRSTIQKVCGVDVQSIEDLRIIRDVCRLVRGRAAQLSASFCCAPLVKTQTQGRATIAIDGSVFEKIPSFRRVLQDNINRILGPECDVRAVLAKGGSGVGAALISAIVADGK

[5] = target: Voltage-gated N-type calcium channel alpha-1B subunit/Amyloid beta A4 precursor protein-binding family A member 1 (Homo sapiens, UniProt Q00975+Q02410); assay: disruptors of Mint-PDZ/N-type channel peptide interaction – biochemical, HTRF, set 2, SAR follow-up (AID 434980); assay type: functional
[6] = target: NACHT, LRR and PYD domains-containing protein 3 (Homo sapiens, UniProt Q96P20); assay: NALP3 inhibitors in yeast, dose response, luminescent (AID 488799); assay type: functional
Chain of NACHT, LRR and PYD domains-containing protein 3 (Q96P20 whole entry, the tested form may be a part): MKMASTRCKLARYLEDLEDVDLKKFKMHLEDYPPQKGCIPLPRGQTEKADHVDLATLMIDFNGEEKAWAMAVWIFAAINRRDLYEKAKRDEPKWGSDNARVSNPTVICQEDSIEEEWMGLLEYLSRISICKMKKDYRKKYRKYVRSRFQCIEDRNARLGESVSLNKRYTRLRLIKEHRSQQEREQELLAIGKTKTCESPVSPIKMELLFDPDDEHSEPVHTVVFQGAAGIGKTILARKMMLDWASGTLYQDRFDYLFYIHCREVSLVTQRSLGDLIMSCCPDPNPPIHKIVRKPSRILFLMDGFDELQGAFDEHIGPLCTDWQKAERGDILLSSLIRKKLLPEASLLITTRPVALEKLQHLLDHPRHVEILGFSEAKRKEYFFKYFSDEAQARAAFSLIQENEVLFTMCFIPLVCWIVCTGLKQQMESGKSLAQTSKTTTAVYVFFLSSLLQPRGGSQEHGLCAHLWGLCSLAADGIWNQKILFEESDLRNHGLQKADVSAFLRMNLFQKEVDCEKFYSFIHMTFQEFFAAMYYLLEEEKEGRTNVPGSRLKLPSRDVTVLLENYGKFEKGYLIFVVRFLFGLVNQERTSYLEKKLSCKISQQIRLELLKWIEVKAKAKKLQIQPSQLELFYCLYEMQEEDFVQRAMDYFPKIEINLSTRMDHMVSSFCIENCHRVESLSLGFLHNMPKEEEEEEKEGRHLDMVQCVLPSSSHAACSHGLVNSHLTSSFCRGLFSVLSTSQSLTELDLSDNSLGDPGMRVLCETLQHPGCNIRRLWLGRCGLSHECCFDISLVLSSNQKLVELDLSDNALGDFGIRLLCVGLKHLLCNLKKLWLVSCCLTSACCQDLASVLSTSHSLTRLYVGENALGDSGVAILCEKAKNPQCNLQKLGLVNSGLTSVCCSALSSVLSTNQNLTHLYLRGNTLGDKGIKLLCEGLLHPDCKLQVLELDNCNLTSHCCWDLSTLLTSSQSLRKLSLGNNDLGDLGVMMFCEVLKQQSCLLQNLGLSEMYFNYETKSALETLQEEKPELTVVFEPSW

SMILES: Cc1ccc(-c2c(C#N)c(N)n(-c3ccc(C)cc3)c(=O)c2C#N)cc1
- EC50 [1]: 2.3 µM (active)
- EC50 [2]: < 3 µM (active)
- EC50 [3]: > 112 µM (not active)
- AC50 [4]: 9.08 µM (active)

- Absolute IC50 (XBP1) (X-box-binding protein 1): 10 µM
SMILES: O=C1CC(c2ccccc2Cl)CC(=O)C1=CNc1ccccc1 (stereo not drawn)

SMILES: O=c1cc(-c2ccccc2)sn1-c1ccccc1
- IC50 (Hexokinase): > 25 µM (inactive)

- IC50 [5]: > 56.8 µM (inactive)
SMILES: CC(C)CCNC(=O)c1cc(-c2ccco2)nc2ccccc12

SMILES: c1ccc(OCc2nnnn2-c2ccccc2)cc1
- IC50 [6]: 6 µM (active)
